Test results from the NIST ThermoML archive (doi:10.1021/je800529x).

Details: Liquid, Drop weight

O=C=O [carbon dioxide] + O
interfacial tension [mN/m]
Details | 2000 kPa | 4000 kPa | 6000 kPa | 8000 kPa | 12000 kPa | 17400 kPa | 27000 kPa
293.15 K | 62.4 | 43.5 | 34.9 | 29.1 | 25.1 | 23.2 | 18.9
298.15 K | 62.1 | 45.1 | 36.2 | 30.6 | 26.5 | 24.9 | 21.1
299.15 K | 61.8 | 45.6 | 36.5 | 30.8 | 26.9 | 25 | 21.3
301.15 K | 62 | 46.1 | 37.6 | 32.8 | 27.4 | 25.8 | 22.3
303.15 K | 62.1 | 48.2 | 39.7 | 33.5 | 27.7 | 26.4 | 25.7
305.15 K | 62.5 | 49.1 | 40.7 | 34.8 | 28.6 | 27.4 | 26.1
307.15 K | 61.5 | 38.2 | 31.5 | 27.3 | 18.5 | 16.4 | 16.1
308.15 K | 62.1 | 39.3 | 31.9 | 27.4 | 18.6 | 16.6 | 16.3
309.15 K | 64.9 | 39.6 | 32.1 | 27.5 | 19 | 17.3 | 16.6
314.15 K | 65.2 | 42.9 | 33.2 | 28.5 | 19.9 | 17.8 | 16.9
333.15 K | 66.6 | 52.9 | 43.1 | 37.9 | 31.2 | 29.4 | 28.8
348.15 K | 66.9 | 53.2 | 43.6 | 38.6 | 34.5 | 31.5 | 29.9
373.15 K | 67.7 | 57.9 | 47.5 | 41.7 | 37.6 | 32.9 | 32.1
398.15 K | 68.1 | 58.9 | 50.5 | 44.6 | 39.6 | 36.1 | 33.2
